pIC50: −log10 of the molar value.
Target: human NaV 1.8 (Homo sapiens, UniProt Q9Y5Y9)
Test: E-VIPR Assay Detecting and Measuring NaV Inhibition Properties
Type: cell-based
Conditions: HEK cells expressing a truncated form of human NaV 1.8
Source text: Sodium ion channels are voltage-dependent proteins that can be activated by inducing membrane voltage changes by applying electric fields. The electrical stimulation instrument and methods of use, referred to as E-VIPR, are described in International Publication No. WO 2002/008748 A3 and C.-J. Huang et al. Characterization of voltage-gated sodium channel blockers by electrical stimulation and fluorescence detection of membrane potential, 24 Nature Biotech. 439-46 (2006), both of which are incorporated by reference in their entirety. The instrument comprises a microtiter plate handler, an optical system for exciting the coumarin dye while simultaneously recording the coumarin and oxonol emissions, a waveform generator, a current- or voltage-controlled amplifier, and parallel electrode pairs that are inserted into assay plate wells. Under integrated computer control, this instrument passes user-programmed electrical stimulus protocols to cells within the wells of the microtiter plate.
16-20 hours prior to running the assay on E-VIPR, HEK cells expressing a truncated form of human NaV 1.8 with full channel activity were seeded into microtiter 384-well plates, pre-coated with matrigel, at a density of 25,000 cells per well. 2.5-5% KIR2.1 Bacmam virus was added to the final cell suspension before seeding into cell plates. HEK cells were grown in Dulbecco's Modified Eagle's Medium (DMEM) supplemented with 10% FBS (Fetal Bovine Serum, qualified; Sigma #F4135), 1% NEAA (Non-Essential Amino Acids, Gibco #11140), 1% HEPES (Gibco #15630), 1% Pen-Strep (Penicillin-Streptomycin; Gibco #15140) and 5 μg/ml Blasticidin (Gibco #R210-01). Cells were expanded in vented cap cell culture flasks, with 90-95% humidity and 5% CO2.
Reagents and Stock Solutions:
• 100 mg/mL Pluronic F-127 (Sigma #P2443), in dry DMSO • Compound Plates: Corning 384-well Polypropylene Round Bottom #3656 • Cell Plates: 384-well tissue culture treated plates (Greiner #781091-2B)
2.5-5% KIR 2.1 Bacmam virus (produced in-house), prepared as described in Section 3.3 of J. A. Fornwald et al., Gene Expression in Mammalian Cells Using BacMam, a Modified Baculovirus System, 1350 Methods in Molecular Biology 95-116 (2016), the entire contents of which are incorporated by reference. The concentration used can be dependent on viral titer of each batch.
5 mM DiSBAC6(3), a voltage sensitive oxonol acceptor (CAS number 169211-44-3; 5-[3-(1,3-dihexylhexahydro-4,6-dioxo-2-thioxo-5-pyrimidinyl)-2-propen-1-ylidene]-1,3-dihexyldihydro-2-thioxo-4,6(1H,5H)-pyrimidinedione), in dry DMSO. The preparation of DiSBAC6(3) is analogous to that of DiSBAC4(3) as described in Voltage Sensing by Fluorescence Resonance Energy Transfer in Single Cells, Gonzalez, J. E. and Tsien, R. Y. (1995) Biophys. J. 69, 1272-1280.
5 mM CC2-DMPE, a commercially available membrane-bound coumarin phospholipid FRET donor (ThermoFisher Scientific catalog number K1017, CAS number 393782-57-5; tetradecanoic acid, 1,1′-[(1R)-1-[8-(6-chloro-7-hydroxy-2-oxo-2H-1-benzopyran-3-yl)-3-hydroxy-3-oxido-8-oxo-2,4-dioxa-7-aza-3-phosphaoct-1-yl]-1,2-ethanediyl] ester) was prepared in dry DMSO. See also, Improved indicators of cell membrane potential that use fluorescence resonance energy transfer, Gonzalez, J. E. and Tsien, R. Y. (1997) Chem. Biol. 4, 269-277.
Voltage Assay Background Suppression Compound (VABSC-1) is prepared in H2O (89-363 mM, range used to maintain solubility)
Human Serum (HS, Millipore #S1P1-01KL, or Sigma SLBR5469V and SLBR5470V as a 50%/50% mixture, for 25% assay final concentration)
• Sodium Chloride 160 mM (9.35 g/L), Potassium Chloride, 4.5 mM (0.335 g/L), Glucose 10 mM (1.8 g/L), Magnesium Chloride (Anhydrous) 1 mM (0.095 g/L), Calcium Chloride 2 mM (0.222 g/L), HEPES 10 mM (2.38 g/L) in water. […]

[1] = compound number with "*": assay performed in the presence of human serum
[2] = compound number without "*" (not marked as run in the presence of human serum)

Sequence of human NaV 1.8 (Q9Y5Y9 126-1722 limits assumed): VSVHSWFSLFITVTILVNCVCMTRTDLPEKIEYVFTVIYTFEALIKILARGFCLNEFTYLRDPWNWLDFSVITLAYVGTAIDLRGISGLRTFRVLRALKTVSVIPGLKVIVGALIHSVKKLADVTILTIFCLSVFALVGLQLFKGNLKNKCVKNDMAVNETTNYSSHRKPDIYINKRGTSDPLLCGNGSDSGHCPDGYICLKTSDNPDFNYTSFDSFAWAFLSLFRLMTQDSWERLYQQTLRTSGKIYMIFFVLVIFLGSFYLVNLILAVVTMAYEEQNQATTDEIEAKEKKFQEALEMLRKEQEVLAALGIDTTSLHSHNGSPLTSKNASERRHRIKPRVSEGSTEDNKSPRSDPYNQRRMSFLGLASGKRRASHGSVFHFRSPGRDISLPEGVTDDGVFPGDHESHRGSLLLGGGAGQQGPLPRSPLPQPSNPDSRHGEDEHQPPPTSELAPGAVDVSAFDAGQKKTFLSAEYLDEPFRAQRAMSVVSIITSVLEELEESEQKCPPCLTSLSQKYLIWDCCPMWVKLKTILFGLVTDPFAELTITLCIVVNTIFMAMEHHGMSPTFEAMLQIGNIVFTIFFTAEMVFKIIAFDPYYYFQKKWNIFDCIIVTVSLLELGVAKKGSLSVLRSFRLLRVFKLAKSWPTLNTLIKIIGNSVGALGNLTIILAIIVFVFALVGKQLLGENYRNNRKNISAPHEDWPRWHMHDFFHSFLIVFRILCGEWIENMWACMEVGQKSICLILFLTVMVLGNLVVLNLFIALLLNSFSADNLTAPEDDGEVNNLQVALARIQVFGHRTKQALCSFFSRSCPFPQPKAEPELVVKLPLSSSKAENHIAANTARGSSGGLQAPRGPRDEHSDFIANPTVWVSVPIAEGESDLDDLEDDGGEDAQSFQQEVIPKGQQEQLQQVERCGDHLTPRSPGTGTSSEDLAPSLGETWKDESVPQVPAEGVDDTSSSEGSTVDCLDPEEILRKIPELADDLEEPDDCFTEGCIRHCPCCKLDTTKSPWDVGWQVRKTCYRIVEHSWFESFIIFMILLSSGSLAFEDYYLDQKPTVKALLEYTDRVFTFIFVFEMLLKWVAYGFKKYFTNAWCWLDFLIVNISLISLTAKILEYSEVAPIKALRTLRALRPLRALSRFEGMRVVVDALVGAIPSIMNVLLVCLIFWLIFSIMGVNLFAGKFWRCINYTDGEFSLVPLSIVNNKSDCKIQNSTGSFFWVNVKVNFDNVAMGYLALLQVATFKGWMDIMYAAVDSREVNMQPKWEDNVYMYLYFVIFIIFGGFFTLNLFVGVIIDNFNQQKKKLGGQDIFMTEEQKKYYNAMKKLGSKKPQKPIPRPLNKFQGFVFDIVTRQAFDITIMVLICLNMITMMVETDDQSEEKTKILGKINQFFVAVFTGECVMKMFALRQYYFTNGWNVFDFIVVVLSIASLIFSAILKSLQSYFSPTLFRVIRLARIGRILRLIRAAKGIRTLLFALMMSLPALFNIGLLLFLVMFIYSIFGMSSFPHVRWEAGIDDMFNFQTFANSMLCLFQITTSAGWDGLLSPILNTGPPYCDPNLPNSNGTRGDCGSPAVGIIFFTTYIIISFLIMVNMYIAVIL

| SMILES | pIC50 [1] | pIC50 [2] |
| --- | --- | --- |
| COc1c([C@@H]2[C@H](OC)[C@H](C)O[C@H]2C(=O)Nc2ccnc([C@@H](O)CO)c2)ccc(F)c1F (single isomer, unassigned) [Compound 9, rel-(2R*,3R*,4S*,5S*)-3-(3,4-difluoro-2-methoxyphenyl)-N-(2-(1,2-dihydroxyethyl)pyridin-4-yl)-4-methoxy-5-methyltetrahydrofuran-2-carboxamide] | ≤ 6.00 | – |
| COc1c([C@@H]2[C@H](OC)[C@H](C)O[C@H]2C(=O)Nc2ccnc([C@H](O)CO)c2)ccc(F)c1F (single isomer, unassigned) [Compound 10, rel-(2R*,3R*,4S*,5S*)-3-(3,4-difluoro-2-methoxyphenyl)-N-(2-(1,2-dihydroxyethyl)pyridin-4-yl)-4-methoxy-5-methyltetrahydrofuran-2-carboxamide] | ≤ 6.00 | – |
| COc1c([C@@H]2[C@H](OC)[C@H](C)O[C@H]2C(=O)Nc2ccnc([C@@](C)(O)CO)c2)ccc(F)c1F (single isomer, unassigned) [Compound 11, rel-(2R*,3R*,4S*,5S*)-3-(3,4-difluoro-2-methoxyphenyl)-N-(2-(1,2-dihydroxypropan-2-yl)pyridin-4-yl)-4-methoxy-5-methyltetrahydrofuran-2-carboxamide] | ≤ 6.00 | – |
| COc1c([C@@H]2[C@H](OC)[C@H](C)O[C@H]2C(=O)Nc2ccnc([C@](C)(O)CO)c2)ccc(F)c1F (single isomer, unassigned) [Compound 12, rel-(2R*,3R*,4S*,5S*)-3-(3,4-difluoro-2-methoxyphenyl)-N-(2-(1,2-dihydroxypropan-2-yl)pyridin-4-yl)-4-methoxy-5-methyltetrahydrofuran-2-carboxamide] | ≤ 6.00 | – |
| COc1c([C@H]2[C@H](C(=O)Nc3ccnc([C@@H](O)CO)c3)OC(C)(C)[C@H]2OC)ccc(F)c1F (single isomer, unassigned) [Compound 20] | 6.00 to 7.00 | – |
| COc1c([C@@H]2[C@@H](C(=O)Nc3ccnc([C@@H](O)CO)c3)OC(C)(C)[C@@H]2OC)ccc(F)c1F (single isomer, unassigned) [Compound 21] | ≤ 6.00 | – |
| COc1c([C@H]2[C@H](C(=O)Nc3ccnc([C@H](O)CO)c3)OC(C)(C)[C@H]2OC)ccc(F)c1F (single isomer, unassigned) [Compound 22] | 6.00 to 7.00 | – |
| COc1c([C@@H]2[C@@H](C(=O)Nc3ccnc([C@H](O)CO)c3)OC(C)(C)[C@@H]2OC)ccc(F)c1F (single isomer, unassigned) [Compound 23] | ≤ 6.00 | – |
| COc1c([C@H]2[C@H](C(=O)Nc3ccnc(C(N)=O)c3)OC(C)(C)[C@H]2OC)ccc(F)c1F (stereo in doubt) [Compound 18, rel-4-((2R,3R,4S)-3-(3,4-difluoro-2-methoxyphenyl)-4-methoxy-5,5-dimethyltetrahydrofuran-2-carboxamido)picolinamide] | – | 7.00 to 8.00 |
| COc1c([C@@H]2[C@@H](C(=O)Nc3ccnc(C(N)=O)c3)OC(C)(C)[C@@H]2OC)ccc(F)c1F (stereo in doubt) [Compound 19, rel-4-((2S,3S,4R)-3-(3,4-difluoro-2-methoxyphenyl)-4-methoxy-5,5-dimethyltetrahydrofuran-2-carboxamido)picolinamide] | ≤ 6.00 | – |
| COc1c([C@H]2[C@H](C(=O)Nc3ccnc(C(N)=O)c3)O[C@@](C)(C(F)(F)F)[C@H]2OC)ccc(F)c1F [Compound 1, 4-((2R,3R,4S,5R)-3-(3,4-difluoro-2-methoxyphenyl)-4-methoxy-5-methyl-5-(trifluoromethyl)tetrahydrofuran-2-carboxamido)picolinamide] | – | > 8.00 |
| COc1c([C@H]2[C@H](C(=O)Nc3ccnc(C(N)=O)c3)O[C@@](C)(C(F)(F)F)[C@H]2O)ccc(F)c1F [Compound 2, 4-((2R,3R,4S,5R)-3-(3,4-difluoro-2-methoxyphenyl)-4-hydroxy-5-methyl-5-(trifluoromethyl)tetrahydrofuran-2-carboxamido)picolinamide] | – | 6.00 to 7.00 |
| COc1c([C@H]2[C@H](C(=O)Nc3ccnnc3)O[C@@](C)(C(F)(F)F)[C@H]2O)ccc(F)c1F [Compound 3, (2R,3R,4S,5R)-3-(3,4-difluoro-2-methoxyphenyl)-4-hydroxy-5-methyl-N-(pyridazin-4-yl)-5-(trifluoromethyl)tetrahydrofuran-2-carboxamide] | – | ≤ 6.00 |
| COc1c([C@H]2[C@H](C(=O)Nc3ccnnc3)O[C@@](C)(C(F)(F)F)[C@H]2OC)ccc(F)c1C [Compound 4, (2R,3R,4S,5R)-3-(4-fluoro-2-methoxy-3-methylphenyl)-4-methoxy-5-methyl-N-(pyridazin-4-yl)-5-(trifluoromethyl)tetrahydrofuran-2-carboxamide] | – | > 8.00 |
| COc1c([C@H]2[C@H](C(=O)Nc3ccnc(C(N)=O)c3)O[C@@](C)(C(F)(F)F)[C@H]2OC)ccc(F)c1C [Compound 5, 4-((2R,3R,4S,5R)-3-(4-fluoro-2-methoxy-3-methylphenyl)-4-methoxy-5-methyl-5-(trifluoromethyl)tetrahydrofuran-2-carboxamido)picolinamide] | – | > 8.00 |
| COc1c([C@H]2[C@H](C(=O)Nc3ccc([C@@H](O)CO)nc3)O[C@@](C)(C(F)(F)F)[C@H]2OC)ccc(F)c1C [Compound 6, (2R,3R,4S,5R)-N-(6-((R)-1,2-dihydroxyethyl)pyridin-3-yl)-3-(4-fluoro-2-methoxy-3-methylphenyl)-4-methoxy-5-methyl-5-(trifluoromethyl)tetrahydrofuran-2-carboxamide] | – | 7.00 to 8.00 |
| CO[C@H]1[C@@H](c2ccc(F)c(F)c2C)[C@H](C(=O)Nc2ccnc(C(N)=O)c2)O[C@@]1(C)C(F)(F)F [Compound 7, 4-((2R,3R,4S,5R)-3-(3,4-difluoro-2-methylphenyl)-4-methoxy-5-methyl-5-(trifluoromethyl)tetrahydrofuran-2-carboxamido)picolinamide] | – | > 8.00 |
| COc1c([C@@H]2[C@H](OC)[C@H](C)O[C@H]2C(=O)Nc2ccnc(C(N)=O)c2)ccc(F)c1F [Compound 8, 4-((2R,3R,4S,5S)-3-(3,4-difluoro-2-methoxyphenyl)-4-methoxy-5-methyltetrahydrofuran-2-carboxamido)picolinamide] | – | 6.00 to 7.00 |
| CCO[C@H]1[C@@H](c2ccc(F)c(F)c2OC)[C@H](C(=O)Nc2ccnc(C(N)=O)c2)O[C@H]1C [Compound 13, 4-((2R,3R,4S,5S)-3-(3,4-difluoro-2-methoxyphenyl)-4-ethoxy-5-methyltetrahydrofuran-2-carboxamido)picolinamide] | – | 6.00 to 7.00 |
| COc1c([C@@H]2[C@H](OC(C)C)[C@H](C)O[C@H]2C(=O)Nc2ccnc(C(N)=O)c2)ccc(F)c1F [Compound 14, 4-((2R,3R,4S,5S)-3-(3,4-difluoro-2-methoxyphenyl)-4-isopropoxy-5-methyltetrahydrofuran-2-carboxamido)picolinamide] | – | 6.00 to 7.00 |
| COc1c([C@@H]2[C@H](OC(C)C)[C@H](C)O[C@H]2C(=O)Nc2ccc(C(N)=O)nc2)ccc(F)c1F [Compound 15, 5-((2R,3R,4S,5S)-3-(3,4-difluoro-2-methoxyphenyl)-4-isopropoxy-5-methyltetrahydrofuran-2-carboxamido)picolinamide] | – | ≤ 6.00 |
